Data as given in US11004539B2, “Predicting metabolic side effects of transported drugs” (The Regents of the University of California, priority 2016, dated 2021).
pIC50, pKi: −log10 of the molar value. Structures can show the parent of a compound that is named as a salt. Where two headings read alike, the source gives them in different places.

Assays:
OAT3 [1] = biological target: T1, OAT3 (Mus musculus, UniProt O88909); experiment: Plasma metabolomics profiling of Oat3KO versus wild-type mice; conditions: Oat3KO vs wild type mice
T1 sequence (O88909 1-537): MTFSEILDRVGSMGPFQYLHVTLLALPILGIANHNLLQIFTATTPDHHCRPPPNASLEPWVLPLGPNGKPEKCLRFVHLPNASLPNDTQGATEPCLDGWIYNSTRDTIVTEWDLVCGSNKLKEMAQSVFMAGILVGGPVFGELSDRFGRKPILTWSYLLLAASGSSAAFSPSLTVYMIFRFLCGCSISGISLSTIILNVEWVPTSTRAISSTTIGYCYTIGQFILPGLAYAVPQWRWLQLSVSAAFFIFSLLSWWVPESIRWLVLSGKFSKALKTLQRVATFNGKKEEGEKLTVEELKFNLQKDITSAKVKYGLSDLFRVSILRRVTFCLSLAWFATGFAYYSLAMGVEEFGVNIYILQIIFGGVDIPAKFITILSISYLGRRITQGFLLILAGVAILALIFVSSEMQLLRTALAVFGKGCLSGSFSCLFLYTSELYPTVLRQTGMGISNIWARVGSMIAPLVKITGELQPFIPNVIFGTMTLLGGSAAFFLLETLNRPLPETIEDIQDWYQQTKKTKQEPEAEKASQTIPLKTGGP

OAT1 [2] = biological target: T2, OAT1 (Mus musculus, UniProt Q8VC69); experiment: Uptake inhibition assay in Oat1-transfected CHO cells (6-carboxyfluorescein tracer); assay type: cell-based; set-up: expressed in transfected cells; host or cells: CHO cells; conditions: for pKi: read-out: calculated Ki; for interaction with OAT1 in in vitro assays: set of 8 predicted metabolites tested
T2 sequence (Q8VC69 1-545): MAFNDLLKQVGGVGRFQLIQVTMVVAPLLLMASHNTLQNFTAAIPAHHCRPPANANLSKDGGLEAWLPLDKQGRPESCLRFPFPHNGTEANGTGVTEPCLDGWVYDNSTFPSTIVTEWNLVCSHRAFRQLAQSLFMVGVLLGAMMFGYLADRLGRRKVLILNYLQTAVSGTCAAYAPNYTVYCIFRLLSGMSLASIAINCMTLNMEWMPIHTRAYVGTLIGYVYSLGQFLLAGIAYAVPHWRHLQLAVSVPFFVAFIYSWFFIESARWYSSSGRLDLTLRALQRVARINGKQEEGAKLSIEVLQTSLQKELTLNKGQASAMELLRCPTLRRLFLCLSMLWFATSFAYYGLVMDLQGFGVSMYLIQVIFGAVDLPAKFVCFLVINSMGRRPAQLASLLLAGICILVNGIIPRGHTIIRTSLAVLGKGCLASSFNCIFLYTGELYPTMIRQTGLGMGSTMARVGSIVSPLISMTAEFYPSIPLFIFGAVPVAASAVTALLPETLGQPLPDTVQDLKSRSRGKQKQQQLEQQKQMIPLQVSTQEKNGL
Description: (A) The IC50 curves for the metabolites characterized in the in vitro uptake inhibition assay using CHO stably expressing Oat1. […] (B) The table summarizes the calculated Ki and metabolic pathways the characterized metabolites were involved in.
Oat1-transfected CHO cells cultured on 96-well plates were incubated in the presence of 10 μM 6-carboxyfluorescein with or without individual metabolites (with controls treated with the OAT1 inhibitor probenecid). The IC50 curves for novel ligands were plotted in Prism Software (GraphPad Inc., San Diego, Calif.), and the IC50 values were converted to Ki (inhibition affinity) using the Cheng-Prusoff equation.

OAT3 [3] = biological target: T1, OAT3; conditions: OAT3-expressing cells; 5-carboxyfluorescein as fluorescent tracer
OAT1 [4] = biological target: T2, OAT1
OAT3 [5] = biological target: T1, OAT3; experiment: cell-based
OAT1 [6] = biological target: T2, OAT1; experiment: cell-based
OAT1 [7] = biological target: T2, OAT1; experiment: Uptake inhibition assay, CHO cells constitutively expressing mouse Oat1; conditions: 6-carboxyfluorescein as fluorescent tracer
OAT1 [8] = biological target: T2, OAT1; conditions: OAT1 vs OAT3; cited from earlier work
OAT3 [9] = biological target: T1, OAT3; conditions: in vivo
[10] = statistical significance not achieved

Compound: CCCCCCCCC(O)C(=O)O (stereo not drawn) [2-hydroxydecanoate]
- change in plasma of the Oat3KO (OAT3 [1]): altered

Compound: CCCC(O)CC(=O)O (stereo not drawn) [3-hydroxyhexanoate]
- change in plasma of the Oat3KO (OAT3 [1]): altered

Compound: O=S(=O)(O)Oc1c[nH]c2ccccc12 [3-indoxyl sulfate]
- change in plasma of the Oat3KO (OAT3 [1]): accumulate in the plasma

Compound: C[C@H](CCC(=O)O)[C@H]1CC[C@H]2[C@@H]3C(=O)C[C@@H]4C[C@H](O)CC[C@]4(C)[C@H]3C[C@H](O)[C@]12C [7-ketodeoxycholate]
- change in plasma of the Oat3KO (OAT3 [1]): significantly increased

Compound: O=C(O)CCCCCCCCCCCCCCCO [16-hydroxy-hexadecanoic acid]
- pKi (OAT1 [2]): 4.89
- interaction with OAT1 in in vitro assays (OAT1 [2]): directly interacting with OAT1

Compound: COc1cc(N)c(Cl)cc1C(=O)NC1CCN(CCCOc2ccc(F)cc2)CC1OC (stereo not drawn) [Cisapride]
- IC50 OAT3 (OAT3 [3]): No ihhibition
- IC50 OAT1 (OAT1 [4]): No inhibition

Compound: NC(=O)C(c1ccccc1)(c1ccccc1)[C@@H]1CCN(CCc2ccc3c(c2)CCO3)C1 [Darifenacin]
- pIC50 (OAT3 [5]): 3.70
- pIC50 (OAT1 [6]): 3.09

Compound: CCCCN(CCCC)CCC(O)c1cc2c(Cl)cc(Cl)cc2c2cc(C(F)(F)F)ccc12 (stereo not drawn) [Halofantrine]
- IC50 OAT3 (OAT3 [3]): No inhibition
- IC50 OAT1 (OAT1 [7]): No inhibition

Compound: CN(C)C(=O)C(CCN1CCC(O)(c2ccc(Cl)cc2)CC1)(c1ccccc1)c1ccccc1 [Loperamide]
- pIC50 (OAT3 [5]): 4.02
- IC50 OAT1 (OAT1 [7]): No significant

Compound: CC(=O)N[C@@H](CC(=O)c1ccccc1N)C(=O)O [N-acetylkynurenine]
- change in plasma of the Oat3KO (OAT3 [1]): accumulate in the plasma

Compound: CC(=O)N[C@@H](Cc1c[nH]c2ccccc12)C(=O)O [N-acetyltryptophan]
- change in plasma of the Oat3KO (OAT3 [1]): accumulate in the plasma

Compound: OC(CNCC(O)C1CCc2cc(F)ccc2O1)C1CCc2cc(F)ccc2O1 (stereo not drawn) [Nebivolol]
- pIC50 (OAT3 [5]): 3.77
- IC50 OAT1 (OAT1 [4]): No significant

Compound: Cc1nc2n(c(=O)c1CCN1CCC(c3noc4cc(F)ccc34)CC1)CCCC2O (stereo not drawn) [Paliperidone]
- pIC50 (OAT3 [5]): 3.59
- pIC50 (OAT1 [6]): 2.97

Compound: CCCN(CCC)S(=O)(=O)c1ccc(C(=O)O)cc1 [Probenecid]
- pIC50 (OAT3 [5]): 4.48

Compound: C[C@H](CCC(=O)O)[C@H]1CC[C@H]2[C@@H]3[C@@H](O)[C@@H](O)[C@@H]4C[C@H](O)CC[C@]4(C)[C@H]3CC[C@]12C [beta-muricholate]
- increase in plasma of the Oat3KO (OAT3 [1]; significantly altered): over 24 fold

Compound: C[C@H](CCC(=O)O)[C@H]1CC[C@H]2[C@@H]3[C@H](O)C[C@@H]4C[C@H](O)CC[C@]4(C)[C@H]3CC[C@]12C [chenodeoxycholate]
- change in plasma of the Oat3KO (OAT3 [1]; [10]): increased

Compound: C[C@H](CCC(=O)O)[C@H]1CC[C@H]2[C@@H]3[C@H](O)C[C@@H]4C[C@H](O)CC[C@]4(C)[C@H]3C[C@H](O)[C@]12C [cholate]
- increase in plasma of the Oat3KO (OAT3 [1]; significantly altered): ~160 fold

Compound: CN/C(=N/CCSCc1nc[nH]c1C)NC#N [cimetidine]
- affinity for OAT1 compared to OAT3, fold less (OAT1 [8]): roughly 10 fold

Compound: Nc1nc2c(c(=O)[nH]1)N=C(CNc1ccc(C(=O)N[C@@H](CCC(=O)O)C(=O)O)cc1)CN2 [dihydrofolic acid]
- pKi (OAT1 [2]): 4.03
- interaction with OAT1 in in vitro assays (OAT1 [2]): directly interacting with OAT1

Compound: C[C@H](CCC(=O)NCC(=O)O)[C@H]1CC[C@H]2[C@@H]3[C@H](O)C[C@@H]4C[C@H](O)CC[C@]4(C)[C@H]3C[C@H](O)[C@]12C [glycocholate]
- change in plasma of the Oat3KO (OAT3 [1]; [10]): increased

Compound: O=C(O)c1c[nH]c2ccccc12 [indole-3-carboxylic acid]
- change in plasma of the Oat3KO (OAT3 [1]): accumulate in the plasma

Compound: O=C(O)C(O)Cc1c[nH]c2ccccc12 (stereo not drawn) [indolelactate]
- change in plasma of the Oat3KO (OAT3 [9]): accumulate in the plasma

Compound: Cc1ccc(OS(=O)(=O)O)cc1 [p-cresol sulfate]
- change in plasma of the Oat3KO (OAT3 [1]): significantly increased

Compound: Cc1ccc(O[C@@H]2O[C@H](C(=O)O)[C@@H](O)[C@H](O)[C@H]2O)cc1 [p-cresol-glucuronide]
- change in plasma of the Oat3KO (OAT3 [1]): significantly increased

Compound: CCCCCC/C=C\CCCCCCCC(=O)O [palmitoleic acid]
- pKi (OAT1 [2]): 3.70
- interaction with OAT1 in in vitro assays (OAT1 [2]): directly interacting with OAT1

Compound: O=S(=O)(O)Oc1ccccc1 [phenol sulfate]
- change in plasma of the Oat3KO (OAT3 [1]): significantly increased

Compound: CCCCC[C@H](O)/C=C/[C@H]1[C@H](O)CC(=O)[C@@H]1CCCCCCC(=O)O [prostaglandin E1]
- pKi (OAT1 [2]): 4.92
- interaction with OAT1 in in vitro assays (OAT1 [2]): directly interacting with OAT1

Compound: O=C(O)CCCCCCCCC(=O)O [sebacate]
- change in plasma of the Oat3KO (OAT3 [1]): altered

Compound: NCCc1c[nH]c2ccc(O)cc12 [serotonin]
- change in plasma of the Oat3KO (OAT3 [1]): accumulate in the plasma

Compound: C[C@H](CCC(=O)NCCS(=O)(=O)O)[C@H]1CC[C@H]2[C@@H]3[C@@H](O)[C@@H](O)[C@@H]4C[C@H](O)CC[C@]4(C)[C@H]3CC[C@]12C [tauro-beta-muricholate]
- change in plasma of the Oat3KO (OAT3 [1]; [10]): increased

Compound: C[C@H](CCC(=O)NCCS(=O)(=O)O)[C@H]1CC[C@H]2[C@@H]3[C@H](O)C[C@@H]4C[C@H](O)CC[C@]4(C)[C@H]3CC[C@]12C [taurochenodeoxycholate]
- increase in plasma of the Oat3KO (OAT3 [1]; did not reach statistical significance): ~30 fold

Compound: C[C@H](CCC(=O)NCCS(=O)(=O)O)[C@H]1CC[C@H]2[C@@H]3CC[C@@H]4C[C@H](O)CC[C@]4(C)[C@H]3C[C@H](O)[C@]12C [taurodeoxycholate]
- change in plasma of the Oat3KO (OAT3 [1]; [10]): increased over ten-fold

Compound: C[C@H](CCC(=O)NCCS(=O)(=O)[O-])[C@H]1CC[C@H]2[C@@H]3C[C@H](O)[C@@H]4C[C@H](O)CC[C@]4(C)[C@H]3CC[C@]12C.[Na+] [taurohyodeoxycholic acid]
- change in plasma of the Oat3KO (OAT3 [1]; [10]): increased over ten-fold

Compound: C[C@H](CCC(=O)NCCS(=O)(=O)O)[C@H]1CC[C@H]2[C@@H]3[C@@H](O)C[C@@H]4C[C@H](O)CC[C@]4(C)[C@H]3CC[C@]12C [tauroursodeoxycholate]
- change in plasma of the Oat3KO (OAT3 [1]; [10]): increased over ten-fold

Compound: O=C(O)CCCCCCCCCCCCC(=O)O [tetradecanedioate]
- change in plasma of the Oat3KO (OAT3 [1]): altered

Compound: C[C@H](CCC(=O)O)[C@H]1CC[C@H]2[C@@H]3[C@@H](O)C[C@@H]4C[C@H](O)CC[C@]4(C)[C@H]3CC[C@]12C [ursodeoxycholate]
- change in plasma of the Oat3KO (OAT3 [1]): significantly increased

Compound: equol glucuronide
- increase in plasma of the Oat3KO (OAT3 [1]; significantly altered): more than 42 fold

Compound: equol sulfate
- increase in plasma of the Oat3KO (OAT3 [1]; significantly altered): more than 7 fold
